Results as given in ChEMBL document CHEMBL1125994, “Synthesis of 9-[2,2-bis(hydroxymethyl)cycloprop-1-yl]guanine as a potential antiviral agent” (Bioorg Med Chem Lett, 1991).
Activity calls are given as the source filed them.

Key:
Type in all cases: functional, cell-based
MRC5 [1] = test: Compound was tested for antiviral activity against HSV-2 (MS) strain at a concentration of 100 ug/mL in MRC-5 (human fibroblast) cells; IA denotes inactive
MRC5 [2] = test: Compound was tested for antiviral activity against HSV-1 (SC16 strain)at a concentration of 100 ug/mL in MRC-5 (human fibroblast) cells; IA denotes inactive
MRC5 [3] = test: Compound was tested for antiviral activity against VZV (Ellen) strain at a concentration of 100 ug/mL in MRC-5 (human fibroblast) cells; IA denotes inactive
MRC5 [4] = test: Compound was tested for antiviral activity against CMV (cytomegalovirus) (AD169) at a concentration of 100 ug/mL in MRC-5 (human fibroblast) cells; IA denotes inactive

Measured: Antiviral activity

Nc1nc(O)c2ncn(C3CC3(CO)CO)c2n1 (centres undefined)
inactive: all assays above
